In patent publication US7732449B2, “Inhibitors of cathepsin S” (IRM LLC, priority 2003, dated 2010):
Where two headings read alike, the source gives them in different places.

What was measured:
Assay type in all cases: biochemical
Cathepsin S = Cathepsin S (Homo sapiens, UniProt P25774); experiment: Cathepsin S inhibition, fluorogenic peptide substrate kinetic assay;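 note: cleavage rate of a coumarin-labelled peptide substrate (50 µM) read as fluorescence increase at Ex 380 nm and Em 450 nm, relative to inhibitor-free control reactions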
Sequence of Cathepsin S (P25774 115-331, species assumed): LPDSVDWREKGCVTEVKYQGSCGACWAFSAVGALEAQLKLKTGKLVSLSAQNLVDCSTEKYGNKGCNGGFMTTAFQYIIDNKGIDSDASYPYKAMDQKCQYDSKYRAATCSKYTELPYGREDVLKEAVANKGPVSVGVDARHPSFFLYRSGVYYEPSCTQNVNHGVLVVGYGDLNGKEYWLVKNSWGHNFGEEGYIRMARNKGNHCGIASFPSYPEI

Cathepsin L = Cathepsin L (Homo sapiens, UniProt P07711); experiment: Cathepsin L inhibition, fluorogenic peptide substrate kinetic assay (selectivity); settings: ratio of cathepsin L inhibition constant to cathepsin S inhibition constant
Sequence of Cathepsin L (P07711 114-333, species assumed): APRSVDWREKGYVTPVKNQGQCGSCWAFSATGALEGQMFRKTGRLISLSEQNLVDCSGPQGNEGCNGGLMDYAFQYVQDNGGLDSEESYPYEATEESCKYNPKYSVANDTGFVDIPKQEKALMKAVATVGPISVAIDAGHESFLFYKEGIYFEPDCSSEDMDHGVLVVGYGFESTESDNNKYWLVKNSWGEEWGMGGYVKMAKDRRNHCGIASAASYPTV

Cathepsin B = Cathepsin B (Homo sapiens, UniProt P07858); experiment: Cathepsin B inhibition, fluorogenic peptide substrate kinetic assay (selectivity); settings: ratio of cathepsin B inhibition constant to cathepsin S inhibition constant;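 note: value is the cathepsin B inhibition constant divided by the cathepsin S one, each from kinetic fluorescence readings (ex 380 nm, em 450 nm) of a 10 µM coumarin peptide substrate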
Cathepsin K = biological target: T1, Cathepsin K (Homo sapiens, UniProt P43235); experiment: Cathepsin K inhibition, fluorogenic peptide substrate kinetic assay (selectivity); settings: ratio of cathepsin K inhibition constant to cathepsin S inhibition constant
T1 sequence (P43235 115-329): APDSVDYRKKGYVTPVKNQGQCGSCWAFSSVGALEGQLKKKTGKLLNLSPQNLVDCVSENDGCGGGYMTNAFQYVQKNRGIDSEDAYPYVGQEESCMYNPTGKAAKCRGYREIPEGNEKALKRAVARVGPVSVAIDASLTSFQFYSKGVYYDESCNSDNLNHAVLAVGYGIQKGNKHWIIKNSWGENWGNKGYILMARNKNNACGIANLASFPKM

[1] = Cathepsin S inhibition constant, pH5.5, 20 minutes preincubation at room temperature, read-out: Ki Cat. S

C[C@@H](CNc1ccc(OC(F)F)cc1)NC(=O)O[C@@H](CC(C)(C)C)C(=O)N1CCOCC1 [Example 85, [2-(4-Difluoromethoxy-phenylamino)-1-(S)-methyl-ethyl]-carbamic acid 3,3-dimethyl-1-(S)-(morpholine-4-carbonyl)-butyl ester]
Ki (Cathepsin S; [1]): 1000 to 10000 nM
Selectivity for Cat. S over Cat. L (Cathepsin L): + (+, >10)
Selectivity for Cat. S over Cat. B (Cathepsin B): + (+, >10)

CC[C@@H](CNc1ccc(OC(F)(F)F)cc1)NC(=O)[C@H](CC1CCCCC1)NC(=O)N1CCOCC1 [Example 75, Morpholine-4-carboxylic acid (2-cyclohexyl-1(S)-{1-(S)-[(4-trifluoromethoxy-phenylamino)-methyl]-propylcarbamoyl}-ethyl)-amide]
Ki (Cathepsin S; [1]): < 100 nM
Selectivity for Cat. S over Cat. K (Cathepsin K): + (+, >10)
Selectivity for Cat. S over Cat. B (Cathepsin B): + (+, >10)

C[C@@H]1CN(C(=O)[C@H](CC2CCCCC2)OC(=O)N[C@@H](C)CN2c3ccc(F)cc3CC2(C)C)C[C@H](C)O1 [Example 93, [2-(5-Fluoro-2,2-dimethyl-2,3-dihydro-indol-1-yl)-1-(S)-methyl-ethyl]-carbamic acid 1-(S)-cyclohexylmethyl-2-(2,6-cis-dimethyl-morpholin-4-yl)-2-oxo-ethyl ester]
Ki (Cathepsin S; [1]): 1000 to 10000 nM
Selectivity for Cat. S over Cat. K (Cathepsin K): + (+, >10)
Selectivity for Cat. S over Cat. B (Cathepsin B): + (+, >10)

C[C@@H]1CN(C(=O)C[C@@H](CC2CCCCC2)C(=O)N[C@@H](C)CNc2ccc(OC(F)(F)F)cc2)C[C@H](C)O1 [Example 50, 2-(R)-Cyclohexylmethyl-4-(cis-2,6-dimethyl-morpholin-4-yl)-N-[1-(S)-methyl-2-(4-trifluoromethoxy-phenylamino)-ethyl]-4-oxo-butyramide]
Ki (Cathepsin S; [1]): < 100 nM
Selectivity for Cat. S over Cat. K (Cathepsin K): ++ (++, >100)
Selectivity for Cat. S over Cat. B (Cathepsin B): +++ (+++, >1000)

CC(C)[C@@H](CNc1ccc(OC(F)(F)F)cc1)NC(=O)[C@@H](CC(=O)N1CCOCC1)CC1CCCCC1 [Example 24, 2-(R)-Cyclohexylmethyl-N-{2-methyl-1-(S)-[(4-trifluoromethoxy-phenylamino)-methyl]-propyl}-4-morpholin-4-yl-4-oxo-butyramide]
Ki (Cathepsin S): < 100 nM

C[C@@H](CNc1ccc(OC(F)(F)F)cc1)NC(=O)[C@H](CSCc1ccccc1)NC(=O)N1CCOCC1 [Example 17, Morpholine-4-carboxylic acid {2-benzylsulfanyl-1-(R)-[1-(S)-methyl-2-(4-trifluoromethoxy-phenylamino)-ethylcarbamoyl]-ethyl}-amide]
Ki (Cathepsin S; [1]): < 100 nM

C[C@@H](CNc1nc2ccccc2s1)NC(=O)[C@H](CC1CCCCC1)NC(=O)N1CCOCC1 [Example 78, Morpholine-4-carboxylic acid {1-(S)-[2-(benzothiazol-2-ylamino)-1-(S)-methyl-ethylcarbamoyl]-2-cyclohexyl-ethyl}-amide]
Ki (Cathepsin S; [1]): 1000 to 10000 nM
Selectivity for Cat. S over Cat. K (Cathepsin K): + (+, >10)
Selectivity for Cat. S over Cat. B (Cathepsin B): + (+, >10)

CS(=O)(=O)CC[C@H](CNc1ccc(OC(F)(F)F)cc1)NC(=O)[C@@H](CC(=O)N1CCOCC1)CC1CCCCC1 [Example 29, 2-(R)-Cyclohexylmethyl-N-{3-methanesulfonyl-1-(R)-[(4-trifluoromethoxy-phenylamino)-methyl]-propyl}-4-morpholin-4-yl-4-oxo-butyramide]
Ki (Cathepsin S): < 100 nM

O=C(NCCN1CCc2cc(F)ccc21)[C@H](CC1CCCCC1)OC(=O)N1CCOCC1 [Example 1, Morpholine-4-carboxylic acid (S)-2-cyclohexyl-1-[2-(5-fluoro-2,3-dihydro-indol-1-yl)-ethylcarbamoyl]-ethyl ester]
Ki (Cathepsin S; [1]): 1000 to 10000 nM
Selectivity for Cat. S over Cat. B (Cathepsin B): + (+, >10)

O=C(N[C@H](CNc1ccc(OC(F)(F)F)cc1)c1ccccc1)[C@@H](CC(=O)N1CCOCC1)c1ccccc1 [Example 44, 4-Morpholin-4-yl-4-oxo-2-(S)-phenyl-N-[1-(S)-phenyl-2-(4-trifluoromethoxy-phenylamino)-ethyl]-butyramide]
Ki (Cathepsin S): 100 to 1000 nM

C[C@@H](CNc1nc2ccccc2o1)NC(=O)[C@H](CC1CCCCC1)NC(=O)N1CCOCC1 [Example 79, Morpholine-4-carboxylic acid {1-(S)-[2-(benzooxazol-2-ylamino)-1-(S)-methyl-ethylcarbamoyl]-2-cyclohexyl-ethyl}-amide]
Ki (Cathepsin S; [1]): 1000 to 10000 nM
Selectivity for Cat. S over Cat. K (Cathepsin K): + (+, >10)
Selectivity for Cat. S over Cat. B (Cathepsin B): + (+, >10)

CC(C)[C@@H](CNc1cccnc1)NC(=O)[C@H](CC1CCCCC1)NC(=O)N1CCOCC1 [Example 76, Morpholine-4-carboxylic acid {2-cyclohexyl-1-(S)-[2-methyl-1-(S)-(pyridin-3-ylaminomethyl)-propylcarbamoyl]-ethyl}-amide]
Ki (Cathepsin S; [1]): 100 to 1000 nM
Selectivity for Cat. S over Cat. K (Cathepsin K): + (+, >10)
Selectivity for Cat. S over Cat. B (Cathepsin B): + (+, >10)

C[C@@H](CN1CC(C)(C)c2cc(F)ccc21)NC(=O)[C@@H](CC(=O)N1CCOCC1)c1ccc(C(F)(F)F)cc1 [Example 66, N-[2-(5-Fluoro-3,3-dimethyl-2,3-dihydro-indol-1-yl)-1-(S)-methyl-ethyl]-4-morpholin-4-yl-4-oxo-2-(S)-(4-trifluoromethyl-phenyl)-butyramide]
Ki (Cathepsin S; [1]): 1000 to 10000 nM
Selectivity for Cat. S over Cat. B (Cathepsin B): + (+, >10)

C[C@@H](CNc1ccc(OC(F)(F)F)cc1)NC(=O)[C@@H](CC(=O)N1CCOCC1)CC(C)(C)C [Example 26, 4,4-Dimethyl-2-(R)-(2-morpholin-4-yl-2-oxo-ethyl)-pentanoic acid [1-(S)-methyl-2-(4-trifluoromethoxy-phenylamino)-ethyl]-amide]
Ki (Cathepsin S): 100 to 1000 nM
Selectivity for Cat. S over Cat. L (Cathepsin L): ++ (++, >100)
Selectivity for Cat. S over Cat. B (Cathepsin B): ++ (++, >100)

CC(C)[C@@H](CNc1ccc(OC(F)(F)F)cc1)NC(=O)[C@H](CC(=O)N1CCOCC1)c1ccc(S(C)(=O)=O)cc1 [Example 71, 2-(R)-(4-methanesulfonyl-phenyl)-N-{2-methyl-1-(S)-[(4-trifluoromethoxy-phenylamino)-methyl]-propyl}-4-morpholin-4-yl-4-oxo-butyramide]
Ki (Cathepsin S; [1]): 1000 to 10000 nM
Selectivity for Cat. S over Cat. L (Cathepsin L): ++ (++, >100)
Selectivity for Cat. S over Cat. B (Cathepsin B): + (+, >10)

O=C(N[C@@H](CCc1ccccc1)CNc1ccc(OC(F)(F)F)cc1)[C@@H](CC(=O)N1CCOCC1)CC1CCCCC1 [Example 23, 2-(R)-Cyclohexylmethyl-4-morpholin-4-yl-4-oxo-N-{3-phenyl-1-(S)-[(4-trifluoromethoxy-phenylamino)-methyl]-propyl}-butyramide]
Ki (Cathepsin S): < 100 nM
Selectivity for Cat. S over Cat. K (Cathepsin K): + (+, >10)
Selectivity for Cat. S over Cat. B (Cathepsin B): ++ (++, >100)

CC(C)[C@@H](CNc1ccc(OC(F)(F)F)cc1)NC(=O)[C@H](CCC1CCCC1)CC(=O)N1CCOCC1 [Example 33, 2-(R)-(2-Cyclopentyl-ethyl)-N-{2-methyl-1-(S)-[(4-trifluoromethoxy-phenylamino)-methyl]-propyl}-4-morpholin-4-yl-4-oxo-butyramide]
Ki (Cathepsin S): < 100 nM

O=C(N[C@H](CN1CC2(CC2)c2cc(F)ccc21)C1CC1)[C@H](CC1CCCCC1)NC(=O)N1CCOCC1 [Example 82, Morpholine-4-carboxylic acid {2-cyclohexyl-1-(S)-[1-(S)-cyclopropyl-2-(5-fluoro-3,3-spirocyclopropyl-2,3-dihydro-indol-1-yl)-ethylcarbamoyl]-ethyl}-amide]
Ki (Cathepsin S; [1]): < 100 nM
Selectivity for Cat. S over Cat. K (Cathepsin K): ++ (++, >100)
Selectivity for Cat. S over Cat. B (Cathepsin B): ++ (++, >100)

CC(C)[C@@H](CNc1ccc(OC(F)(F)F)cc1)NC(=O)[C@@H](CC(=O)N1CCOCC1)CC1CCCC1 [Example 31, 2-(R)-Cyclopentylmethyl-N-{2-methyl-1-(S)-[(4-trifluoromethoxy-phenylamino)-methyl]-propyl}-4-morpholin-4-yl-4-oxo-butyramide]
Ki (Cathepsin S): < 100 nM

CC[C@@H](CNc1ccc(OC(F)(F)F)cc1)NC(=O)[C@H](CCc1ccccc1)CC(=O)N1CCOCC1 [Example 38, 4-Morpholin-4-yl-4-oxo-2-(R)-phenethyl-N-{1-(S)-[(4-trifluoromethoxy-phenylamino)-methyl]-propyl}-butyramide]
Ki (Cathepsin S): < 100 nM
Selectivity for Cat. S over Cat. B (Cathepsin B): +++ (+++, >1000)

CS(=O)(=O)CC[C@@H](CNc1ccc(OC(F)(F)F)cc1)NC(=O)[C@@H](CC(=O)N1CCOCC1)CC1CCCCC1 [Example 28, 2-(R)-Cyclohexylmethyl-N-{3-methanesulfonyl-1-(S)-[(4-trifluoromethoxy-phenylamino)-methyl]-propyl}-4-morpholin-4-yl-4-oxo-butyramide]
Ki (Cathepsin S): < 100 nM

CS(=O)(=O)CC[C@@H](CNc1ccc(OC(F)(F)F)cc1)NC(=O)[C@H](CC1CCCCC1)NC(=O)N1CCOCC1 [Example 74, Morpholine-4-carboxylic acid (2-cyclohexyl-1-(S)-{3-methanesulfonyl-1-(S)-[(4-trifluoromethoxy-phenylamino)-methyl]-propylcarbamoyl}-ethyl)-amide]
Ki (Cathepsin S; [1]): < 100 nM
Selectivity for Cat. S over Cat. K (Cathepsin K): + (+, >10)
Selectivity for Cat. S over Cat. B (Cathepsin B): + (+, >10)

CC(C)[C@@H](CNc1ccc(OC(F)(F)F)cc1)NC(=O)[C@H](CCCc1ccccc1)CC(=O)N1CCOCC1 [Example 30, 2-(R)-(2-Morpholin-4-yl-2-oxo-ethyl)-5-phenyl-pentanoic acid {2-methyl-1-(S)-[(4-trifluoromethoxy-phenylamino)-methyl]-propyl}-amide]
Ki (Cathepsin S): < 100 nM

O=C(N[C@@H](CCc1ccccc1)CNc1ccc(OC(F)(F)F)cc1)[C@@H](CC(=O)N1CCOCC1)c1ccccc1 [Example 40, 4-Morpholin-4-yl-4-oxo-2-(S)-phenyl-N-{3-phenyl-1-(S)-[(4-trifluoromethoxy-phenylamino)-methyl]-propyl}-butyramide]
Ki (Cathepsin S): < 100 nM
